Laboratory results reported in the supplement of paper PMC10627819.

Assays:
S. aureus DSM 20231 = experiment: Bliss interaction score (quartile over a dose matrix) (fitness difference); higher = more antagonism (negative = synergy)
Procedure, shortened: (§1)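 Fitness is OD595 at stationary-phase entry relative to the plate's robust no-drug mean, capped at 1. Single-drug fitness was inferred from combinations. The Bliss score is observed minus product-expected fitness, summarised by quartiles over technical, biological and donor/recipient replicates.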

S. pneumoniae D39V [1] = experiment: as above
Procedure, shortened: as §1

B. subtilis 168 [2] = experiment: as above
Procedure, shortened: as §1

S. aureus Newman [3] = experiment: as above
Procedure, shortened: as §1

S. pneumoniae D39V [4] = experiment: fitness (endpoint OD595 vs no drug) (fraction); higher = more growth
Procedure, shortened: (§2)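 Fitness compares growth at the stationary-phase transition with the robust mean of no-drug control wells, as a ratio of optical densities. The ratio is capped at 1. Wells of 384-well plates held 30 µl, or 55 µl for S. pneumoniae, inoculated at OD595 0.01. Readings at OD595 every 30 min for 14 h at 37 °C were corrected against the first reading.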

B. subtilis 168 [5] = experiment: as above
Procedure, shortened: as §2

S. aureus Newman [6] = experiment: as above
Procedure, shortened: as §2
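For Bliss interaction score (quartile over a dose matrix) in this document: first quartile when negative (synergy) and third quartile when positive (antagonism).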

CN[C@@H]1[C@H](O)[C@H](NC)[C@H]2O[C@@]3(O)C(=O)C[C@@H](C)O[C@H]3O[C@@H]2[C@H]1O [Spectinomycin] + CN(C)c1cc(NC(=O)CNC(C)(C)C)c(O)c2c1C[C@H]1C[C@H]3[C@H](N(C)C)C(O)=C(C(N)=O)C(=O)[C@@]3(O)C(O)=C1C2=O [Tigecycline]
Settings	Bliss interaction score
B. subtilis 168 [2]	0.043
S. aureus DSM 20231	-0.0602
S. aureus Newman [3]	0.0622
S. pneumoniae D39V [1]	0.0451

fitness
Settings	first compound 2 µg/mL	first compound 4 µg/mL	first compound 8 µg/mL	first compound 16 µg/mL
B. subtilis 168 [5], partner 0.039 µg/mL	0.976	≥ 1	0.978	–
B. subtilis 168 [5], partner 0.078 µg/mL	0.959	0.968	0.927	–
B. subtilis 168 [5], partner 0.156 µg/mL	1	≥ 1	0.889	–
S. aureus Newman [6], partner 0.039 µg/mL	–	0.912	0.918	0.904
S. aureus Newman [6], partner 0.078 µg/mL	–	0.954	0.928	0.908
S. aureus Newman [6], partner 0.156 µg/mL	–	0.938	0.961	0.929
S. pneumoniae D39V [4], partner 0.65 µg/mL	–	0.951	0.896	0.747
S. pneumoniae D39V [4], partner 1.3 µg/mL	–	0.981	0.905	0.788
S. pneumoniae D39V [4], partner 2.6 µg/mL	–	0.941	0.896	0.761

fitness, one replicate
Settings	partner 0.039 µg/mL	partner 0.078 µg/mL	partner 0.125 µg/mL	partner 0.156 µg/mL	partner 0.25 µg/mL	partner 0.5 µg/mL
B. subtilis 168 [5], first compound 2 µg/mL	–	–	≥ 1	–	0.994	0.937
B. subtilis 168 [5], first compound 4 µg/mL	–	–	≥ 1	–	0.944	≥ 1
B. subtilis 168 [5], first compound 8 µg/mL	–	–	0.941	–	0.931	≥ 1
S. aureus Newman [6], first compound 32 µg/mL	0.592	0.585	–	0.603	–	–
S. aureus Newman [6], first compound 64 µg/mL	0.105	0.0894	–	0.1	–	–

CN[C@@H]1[C@H](O)[C@H](NC)[C@H]2O[C@@]3(O)C(=O)C[C@@H](C)O[C@H]3O[C@@H]2[C@H]1O [Spectinomycin] + CN[C@@H]1[C@H](O[C@H]2[C@H](O[C@H]3[C@H](O)[C@@H](O)[C@H](N=C(N)N)[C@@H](O)[C@@H]3N=C(N)N)O[C@@H](C)[C@]2(O)C=O)O[C@@H](CO)[C@H](O)[C@H]1O [Streptomycin]
Settings	Bliss interaction score
B. subtilis 168 [2]	0.0835
S. aureus DSM 20231	0.126
S. aureus Newman [3]	0.0625
S. pneumoniae D39V [1]	0.0931

fitness
Settings	first compound 2 µg/mL	first compound 4 µg/mL	first compound 8 µg/mL	first compound 16 µg/mL
B. subtilis 168 [5], partner 2 µg/mL	0.928	0.973	0.894	–
B. subtilis 168 [5], partner 4 µg/mL	–	–	0.623	–
B. subtilis 168 [5], partner 8 µg/mL	0.148	0.0533	0.0588	–
S. aureus Newman [6], partner 1 µg/mL	–	0.956	0.943	0.906
S. aureus Newman [6], partner 2 µg/mL	–	0.926	0.975	–
S. pneumoniae D39V [4], partner 2 µg/mL	–	0.946	0.89	–
S. pneumoniae D39V [4], partner 4 µg/mL	–	0.952	0.878	0.83
S. pneumoniae D39V [4], partner 8 µg/mL	–	0.921	0.89	0.822

one replicate
Settings	fitness
S. aureus Newman [6], first compound 16 µg/mL, partner 8 µg/mL	0.0211
S. aureus Newman [6], first compound 32 µg/mL, partner 2 µg/mL	0.455
S. aureus Newman [6], first compound 32 µg/mL, partner 4 µg/mL	0.342
S. aureus Newman [6], first compound 32 µg/mL, partner 8 µg/mL	0.0569
S. aureus Newman [6], first compound 64 µg/mL, partner 2 µg/mL	0.0619
S. aureus Newman [6], first compound 64 µg/mL, partner 4 µg/mL	0.0473
S. aureus Newman [6], first compound 64 µg/mL, partner 8 µg/mL	0.0327
S. pneumoniae D39V [4], first compound 4 µg/mL, partner 16 µg/mL	0.882
S. pneumoniae D39V [4], first compound 8 µg/mL, partner 16 µg/mL	0.842
S. pneumoniae D39V [4], first compound 16 µg/mL, partner 2 µg/mL	0.84
S. pneumoniae D39V [4], first compound 16 µg/mL, partner 16 µg/mL	0.705

CN[C@@H]1[C@H](O[C@H]2[C@H](O[C@H]3[C@H](O)[C@@H](O)[C@H](N=C(N)N)[C@@H](O)[C@@H]3N=C(N)N)O[C@@H](C)[C@]2(O)C=O)O[C@@H](CO)[C@H](O)[C@H]1O [Streptomycin] + CC1=C\[C@@H](O)CC(=O)Cc2nc(co2)C(=O)N2CCC=C2C(=O)O[C@H](C(C)C)[C@H](C)/C=C/C(=O)NC\C=C\1 [Virginiamycin M1]
Settings	Bliss interaction score
B. subtilis 168 [2]	-0.124
S. aureus DSM 20231	-0.161
S. aureus Newman [3]	0.0782
S. pneumoniae D39V [1]	0.0533

fitness, one replicate
Settings	partner 0.15 µg/mL	partner 0.3 µg/mL	partner 0.5 µg/mL	partner 1 µg/mL	partner 2 µg/mL
S. aureus Newman [6], first compound 2 µg/mL	–	–	0.804	0.911	0.812
S. aureus Newman [6], first compound 4 µg/mL	–	–	0.865	0.86	0.82
S. aureus Newman [6], first compound 8 µg/mL	–	–	0.811	0.845	0.708
S. pneumoniae D39V [4], first compound 2 µg/mL	0.928	0.912	–	–	–
S. pneumoniae D39V [4], first compound 4 µg/mL	0.925	0.929	–	–	–
S. pneumoniae D39V [4], first compound 8 µg/mL	0.917	0.941	–	–	–
S. pneumoniae D39V [4], first compound 16 µg/mL	–	–	0.866	0.844	0.776

fitness
Settings	first compound 1 µg/mL	first compound 2 µg/mL	first compound 4 µg/mL	first compound 8 µg/mL
B. subtilis 168 [5], partner 0.0625 µg/mL	–	0.962	–	0.0325
B. subtilis 168 [5], partner 0.125 µg/mL	–	0.966	0.429	0.0265
B. subtilis 168 [5], partner 0.25 µg/mL	–	≥ 1	0.453	0.0334
S. aureus Newman [6], partner 0.0625 µg/mL	1	0.879	–	–
S. aureus Newman [6], partner 0.125 µg/mL	0.996	0.891	–	–
S. aureus Newman [6], partner 0.25 µg/mL	0.978	0.916	–	–
S. pneumoniae D39V [4], partner 0.5 µg/mL	–	0.977	0.998	0.931
S. pneumoniae D39V [4], partner 1 µg/mL	–	0.955	0.99	0.884
S. pneumoniae D39V [4], partner 2 µg/mL	–	0.917	0.944	0.921
